# Key:
# [1] = system: THP-1; experiment: Alamar Blue cell viability assay, THP-1; type: cell-based; details: Homo sapiens; THP-1, Leukemia
# Experimental: (§1) The effect of Compound I on cell viability was assessed by Alamar Blue assay of metabolic activity in various cancer cell lines.
# [2] = system: NCI-H460; experiment: Alamar Blue cell viability assay, NCI-H460; type: cell-based; details: Homo sapiens; NCI-H460, Lung
# Experimental: as §1
# [3] = system: MOLT-3; experiment: Alamar Blue cell viability assay, MOLT-3; type: cell-based; details: Homo sapiens; MOLT-3, Leukemia
# Experimental: as §1
# [4] = system: PC-3; experiment: Alamar Blue cell viability assay, PC-3; type: cell-based; details: Homo sapiens; PC-3, Prostate
# Experimental: as §1
# [5] = system: Hs 605.T; experiment: Alamar Blue cell viability assay, Hs 605.T; type: cell-based; details: Breast
# Experimental: as §1
# [6] = system: CCD-1096Sk; experiment: Alamar Blue cell viability assay, CCD-1096Sk; type: cell-based; details: Normal
# Experimental: as §1
# [7] = Dose escalation study in patients, toxicity and adverse events; type: in vivo, human
# Experimental: Pharmacokinetic studies and dose escalation studies were conducted in adult patients with metastatic, recurrent, locally, advanced, or unresectable solid malignancy (patients with histologically and/or cytologically confirmed solid malignancy), who received prior anti-cancer treatment(s) until disease progression, at 10 different dose levels of Compound I. Groups 1-7 were administered intravenously on days 1 and 8 of a 4-week cycle at 50, 100, 150, 200, 250, 325, and 475 mg/m^2 (lyophilized formulation), respectively. Groups 8-10 were administered intravenously on days 1,8, and 15 of a 4-week cycle at 325, 475, and 650 mg/m^2 (lyophilized formulation), respectively. Each patient received each dose over 1 hour by IV infusion on days described above.
# [8] = system: BRCA12 deficient cells; experiment: Toxicity against BRCA12 deficient cells; type: cell-based; details: cell lines of different genetic backgrounds (colon, breast and ovary), mouse and human
# [9] = system: RPMI-8226; experiment: Alamar Blue cell viability assay, RPMI-8226; type: cell-based; details: Homo sapiens; RPMI-8226, Myeloma
# Experimental: as §1
# [10] = system: PANC-1; experiment: Alamar Blue cell viability assay, PANC-1; type: cell-based; details: Homo sapiens; PANC-1, Pancreatic
# Experimental: as §1
# [11] = system: Saos-2; experiment: Alamar Blue cell viability assay, Saos-2; type: cell-based; details: Homo sapiens; Saos-2, Osteosarcoma
# Experimental: as §1
# [12] = system: BJ-hTERT; experiment: Alamar Blue cell viability assay, BJ-hTERT; type: cell-based; details: Normal
# Experimental: as §1
# [13] = system: A549; experiment: Alamar Blue cell viability assay, A549; type: cell-based; details: Homo sapiens; A549, Lung
# Experimental: as §1
# [14] = system: BT-474; experiment: Alamar Blue cell viability assay, BT-474; type: cell-based; details: Homo sapiens; BT-474, Breast
# Experimental: as §1
# [15] = system: CCD-1058Sk; experiment: Alamar Blue cell viability assay, CCD-1058Sk; type: cell-based; details: Normal
# Experimental: as §1
# [16] = system: normal cells; experiment: Alamar Blue cell viability assay, normal cells; type: cell-based; details: compared with cancer cell lines
# Experimental: as §1
# [17] = system: HL60; experiment: Alamar Blue cell viability assay, HL60; type: cell-based; details: Homo sapiens, HL-60; HL60, Leukemia
# Experimental: as §1
smiles,measurement,setting,value
"Cc1cnc(CNC(=O)c2c(=O)c3ccc(N4CCCN(C)CC4)nc3n3c2sc2ccccc23)cn1 [Compound I, 2-(4-Methyl-[1,4]diazepan-1-yl)-5-oxo-5H-7-thia-1,11b-diaza-benzo[c]fluorene-6-carboxylic acid (5-methyl-pyrazin-2-ylmethyl)-amide]",EC50,[1],47 nM
same,EC50,[2],38 nM
same,EC50,[3],6 nM
same,EC50,[4],1100 nM
same,EC50,[5],116 nM
same,EC50,[6],5.26 µM
same,Serious adverse events (SAEs) considered related to Compound I,[7]; Groups 1-10,Three
same,Treatment-related AE: hand-foot syndrome,[7]; Groups 1-10,23%
same,Treatment-related AE: headache,[7]; Groups 1-10,10%
same,Treatment-related AE: mucositis,[7]; Groups 1-10,15%
same,Treatment-related AE: nausea,[7]; Groups 1-10,44%
same,Treatment-related AE: photosensitivity of the eyes,[7]; Groups 1-10,21%
same,Treatment-related AE: photosensitivity of the skin,[7]; Groups 1-10,59%
same,Treatment-related AE: rash,[7]; Groups 1-10,10%
same,Dose level toxicity (DLT),"[7]; Groups 1-10, 50 to 650 mg/m^2 IV",No dose level toxicity (DLT) were observed
same,Treatment-related non-DLT grade 3 photosensitivity events,"[7]; in Groups 1, 5, and 8-10, reversible",5
same,Toxicity against BRCA12 deficient cells,[8],specific toxicity
same,EC50,[9],68 nM
same,EC50,[10],5 µM
same,EC50,[11],5 µM
same,EC50,[12],5.17 µM
same,EC50,[13],4.9 µM
same,EC50,[14],86 nM
same,EC50,[15],4.71 µM
same,Activity in normal cells,[16],significantly less active
same,EC50,[17],83 nM

# From patent publication US20210046071A1, “TETRACYCLIC COMPOUNDS AND THEIR SALTS, COMPOSITIONS, AND METHODS FOR THEIR USE” (Senhwa Biosciences, Inc., priority 2019, published 2021)
